In US10155927B2, “Method for differentiation of pluripotent stem cells into cardiomyocytes” (Hoffmann-La Roche Inc., priority 2014, dated 2018):

What was measured:
[1] = test system: human embryonic stem cells (hESC) and induced pluripotent stem cells (iPSC); assay: Differentiation of pluripotent stem cells (hESC or iPSC) into cardiomyocytes; format: cell-based; set-up: key to Amount of cardiomyocytes obtained: (−) No cardiomyocytes obtained; (+)—(+++): Amount of cardiomyocytes obtained; (+)—(+++): Amount of cardiomyocytes obtained; (+)—(+++): Amount of cardiomyocytes obtained; details: for Ability to induce cardiomyocyte differentiation: other Wnt inhibitors tested instead of Wnt-C59; for Amount of cardiomyocytes obtained: Experiments I-III
Description: (§1) To initialize differentiation, the cells are incubated in insulin-free medium comprising compound 21 (3-(3-Amino-phenyl)-4-(1-methyl-1H-indol-3-yl)-pyrrole-2,5-dione, also referred to as “compound 21” or “CP21” herein; see e.g., Gong et al. (2010) Bioorganic& Medicinal Chemistry Letters 20:1693-1696) to activate the wnt-pathway. The optimal concentration of compound 21 to induce cardiomyocyte differentiation is dependent on the cell density of the pluripotent cells that are attached to the cell vessel. […] This is surprising as prior art protocols require higher concentrations of other modulators of the Wnt pathway for efficient differentiation.
(§2) The optimal concentration was identified at 2 μM. […] In one embodiment, step c) of the differentiation method comprises incubating the cells in a medium comprising 1-10 μM Wnt-C59. In one preferred embodiment step c) of the differentiation method comprises incubating the cells in a medium comprising 2 μM Wnt-C59.
Anthelmintic niclosamide and Pyrvinium were tested for their ability to induce cardiomyocyte differentiation.
Human embryonic stem cells (hESC) or induced pluripotent stem cells (iPSC) were cultured in 56 cm^2 dishes coated with Matrigel (BD Bioscience, Cat. 354277) at 37° C. and 5% CO2 in 10 ml mTeSR1 medium (Stemcell Technologies, Cat. 05850).
To propagate pluripotent stem cells by conserving their pluripotent state, hESC or iPSC were treated with the following: the cells were washed once with 10 ml PBS−/−, and afterwards incubated with 3 ml Accutase (Innovative Cell Technologies, Cat. AT-104) for 2-3 minutes at 37° C. and 5% CO2, to detach the cells.
The enzymatic reaction of Accutase was stopped with 7 ml mTeSR1 and followed by centrifugation of the cells for 3 minutes at 500×g.
The cells were resuspended in 10 ml mTeSR1, and counted. For further cultivation, 2×10^6 cells were plate on 56 cm^2 dishes with fresh coated Matrigel. Further the hESC or iPSC were cultivated in 10 ml mTeSR1 and 10 μM Rock inhibitor, Y-27632 (Millipore, Cat. SCM075) at 37° C. and 5% CO2. Subsequently, 10 ml mTeSR1 medium was changed daily and the pluripotent stem cells were cultivated to a density of 80% before passaging.
For successful differentiation into cardiomyocytes, pluripotent stem cells were plated at high density using 5.5×10^5/cm^2 of hESC or iPSC. Passaging and cultivation were performed as described above for pluripotent stem cells.
After 24 hours (day 1) the hESC or iPSC were washed once with 180 μl/cm^2 PBS−/− and the cultivation medium was changed to 180 μl/cm^2 differentiation medium.
After 24 hours (day 2) incubation with CP21, the cells were washed with PBS−/− as described above and cultivated for 48 hours in 220 μl/cm^2 differentiation medium.
After 48 hours (day 4), the cells were washed with PBS−/− as described above and cultivated for 48 hours in 220 μl/cm^2 differentiation medium comprising 2 μM Wnt-C59 (Cellagen Technology, Cat. C7641-2s, International Patent Application Publication No. WO 20101 01849), a potent Wnt signaling inhibitor, by blocking Wnt secretion.
After 48 hours (day 6), the cells were washed with PBS−/− as described above and cultivated for 48 hours in 220 μl/cm^2 differentiation medium.
After 48 hours (day 8), the cells were washed with PBS−/− as described above and cultivated for 48 hours in 220 μl/cm^2 RPMI medium comprising ascorbic acid, penicillin-streptomycin, but now including B27 plus insulin, minus vitamin A (=expansion medium)
Subsequent medium changes were performed every 48 hours using 220 μl/cm^2 expansion medium.
To test the efficiency of the differentiation process, the cardiomyocytes were characterized at differentiation day 14 by cell immunohistochemistry and Fluorescence Activated Cell Sorting (FACS) using antigens specific to cardiomyocytes.
The protocol as described above was repeated with different CP21 concentrations. The results are shown in Table 1 below: (−) No cardiomyocytes obtained, (+)—(+++): Amount of cardiomyocytes obtained.

[2] = test system: pluripotent cells (hESC or iPSC); assay: Cell viability / cell death during the differentiation protocol; format: cell-based
Description: as §1, §2

[3] = test system: pluripotent stem cell derived cardiomyocytes; assay: xCELLigence cardiomyocyte beating analysis; format: cell-based, human
Description: Isoproterenol increases the heart rate and myocardial contractility by stimulating cardiac beta-1 receptors. To detect this proarrhythmic effect in the stem cell derived cardiomyocytes, 7×10^4/cm^2 cells were plated on special E-Plate Cardio 96 (Roche, Cat. No. 05232368001) coated with 130 μl/cm^2 0.1% Gelatine for 1 hour at 37° C. After cells attached to the plate and recovered for 2 days as described above, medium was changed to iCell Cardiomyocytes Maintenance Medium (Cellular Dynamics, Cat. No.CMM-100-120-005). Cells were measured using the xCELLigence RTCA Cardio System (Roche Applied Science). 7 days after plating the cells were treated with 3 μM Isoproterenol and measured directly. Each 96-well plate was measured at a resolution of 12.9 ms. The first 3 minutes were measured without interruption and over the next 24 hours the cells were measured every 15 minutes for 1 minute duration. Activation of β-receptors on the heart induces positive chronotropic effects in cardiomyocytes. To confirm that the pluripotent stem cell derived cardiomyocytes respond to β-receptor activation, the cardiomyocytes were incubated with the β-receptor agonist isoproterenol and subsequently analysed using the xCELLigence system.

Compound: Cc1cc(/C=C/c2ccc3cc(N(C)C)ccc3[n+]2C)c(C)n1-c1ccccc1 [Pyrvinium]
- Ability to induce cardiomyocyte differentiation [1]: did not result in a successful generation of cardiomyocytes

Compound: Cn1cc(C2=C(c3cccc(N)c3)C(=O)NC2=O)c2ccccc21 [CP21, 3-(3-Amino-phenyl)-4-(1-methyl-1H-indol-3-yl)-pyrrole-2,5-dione]
- Cell death after incubation ([2]; After 24 h CP21 incubation): strong cell death
- Concentrations showing decreased cell viability ([2]; step b) of differentiation): above 5 μM
- Amount of cardiomyocytes obtained ([1]; Cp21 conc. 0.3 μM): −
- Amount of cardiomyocytes obtained ([1]; Cp21 conc. 1 μM): +
- Amount of cardiomyocytes obtained ([1]; Cp21 conc. 2 μM): ++ and +++
- Amount of cardiomyocytes obtained ([1]; Cp21 conc. 3 μM): ++ and +
- Amount of cardiomyocytes obtained ([1]; Cp21 conc. 5 μM): + and −
- Amount of cardiomyocytes obtained ([1]; Cp21 conc. 10 μM): −
- Concentration resulting in the most efficient differentiation of pluripotent stem cells into cardiomyocytes ([1]; cell density 5.5×10^5/cm^2, tested 0-10 μM at 1.8-11×10^5/cm2 hESC or iPSC): 2 µM
- Incubation time optimal for cardiogenesis ([1]; various incubation times tested, longer or shorter less efficient): 24 h

Compound: Cc1cc(-c2ccc(CC(=O)Nc3ccc(-c4cccnc4)cc3)cc2)ccn1 [Wnt-C59, 2-(4-(2-methylpyridin-4-yl)phenyl)-N-(4-(pyridin-3-yl)phenyl)acetamide]
- Concentrations showing increased cell death ([2]; step c) of differentiation): more than 5 μM
- Optimal concentration for cardiomyocyte differentiation ([1]; Wnt repressor in step c), tested 1-10 μM): 2 µM
- Effect on cardiomyocytes obtained ([1]; Wnt-C59 1-10 μM, step c)): significant increase in cardiomyocytes

Compound: CC(C)NCC(O)c1ccc(O)c(O)c1 (centres unmarked) [isoproterenol]
- Beating rate ([3]; 3 μM isoproterenol, untreated control 45 beats per minute): 60 beats per minute
- Effect on beating frequency ([3]; FIG. 5, xCELLigent analysis): increases beating frequency

Compound: O=C(Nc1ccc([N+](=O)[O-])cc1Cl)c1cc(Cl)ccc1O [Anthelmintic niclosamide, niclosamide]
- Ability to induce cardiomyocyte differentiation [1]: did not result in a successful generation of cardiomyocytes
